Test results taken from article PMC10850145, “Hormonal steroids induce multidrug resistance and stress response genes in Neisseria gonorrhoeae by binding to MtrR” (Nature Communications, 2024).
Several values for one entry are separate records, joined by “and”; a condition that tells them apart may be missing. Equal values may be shown once. Read-outs that look alike come from different tables or passages of the source.

System: mtrC-lacZ expression
Assay type: cell-based, Neisseria gonorrhoeae
Conditions: for mtrC-lacZ β-galactosidase activity, Mean: left block of sheet (mtrCDE); for β-galactosidase activity, Mean: second (right) untitled block of sheet Figure S10 (mtrC); for β-galactosidase activity, mtrC-lacZ, Mean: strain ΔmtrR + mtrR WT (pGCC3-mtrR); for Plate-6 (Testosterone) Miller units, Mean: upper four plate rows; for Miller units, Mean: right block Plate-4
[1] = strain ΔmtrR + mtrR R176E, 50 µM hormone
[2] = strain ΔmtrR + mtrR WT, 25 µM hormone
[3] = strain ΔmtrR + mtrR WT, 50 µM hormone

## C[C@]12CC[C@H]3[C@@H](CCC4=CC(=O)CC[C@@]43C)[C@@H]1CC[C@@H]2O [Testosterone, testosterone]
[1]
  mtrC-lacZ β-galactosidase activity, Mean: 224 Miller units
  β-galactosidase activity, Mean: 83 Miller units
Strain ΔmtrR + mtrR R176E, 100 µM hormone
  mtrC-lacZ β-galactosidase activity, Mean: 238 Miller units
Hormone 6.25 µM
  β-galactosidase activity, mtrC-lacZ, Mean: 125 Miller units
Hormone 12.5 µM
  β-galactosidase activity, mtrC-lacZ, Mean: 130 Miller units
Hormone 25 µM
  β-galactosidase activity, mtrC-lacZ, Mean: 133 Miller units
Hormone 50 µM
  β-galactosidase activity, mtrC-lacZ, Mean: 152 Miller units
Strain ΔmtrR + mtrR WT, 1 µM hormone
  mtrC-lacZ β-galactosidase activity, Mean: 107 Miller units
Strain ΔmtrR + mtrR WT, 6.25 µM hormone
  β-galactosidase activity, Mean: 45 Miller units
Strain ΔmtrR + mtrR WT, 10 µM hormone
  mtrC-lacZ β-galactosidase activity, Mean: 177 Miller units
Strain ΔmtrR + mtrR WT, 12.5 µM hormone
  β-galactosidase activity, Mean: 50 Miller units
[2]
  mtrC-lacZ β-galactosidase activity, Mean: 181 Miller units
  β-galactosidase activity, Mean: 70 Miller units
[3]
  mtrC-lacZ β-galactosidase activity, Mean: 213 Miller units
  β-galactosidase activity, Mean: 74 Miller units
Strain ΔmtrR + mtrR WT, 100 µM hormone
  mtrC-lacZ β-galactosidase activity, Mean: 227 Miller units
Strain ΔmtrR, 1 µM hormone
  mtrC-lacZ β-galactosidase activity, Mean: 334 Miller units
Strain ΔmtrR, 6.25 µM hormone
  β-galactosidase activity, Mean: 146 Miller units
Strain ΔmtrR, 10 µM hormone
  mtrC-lacZ β-galactosidase activity, Mean: 358 Miller units
Strain ΔmtrR, 12.5 µM hormone
  β-galactosidase activity, Mean: 153 Miller units
Strain ΔmtrR, 25 µM hormone
  β-galactosidase activity, Mean: 155 Miller units
Strain ΔmtrR, 50 µM hormone
  mtrC-lacZ β-galactosidase activity, Mean: 284 Miller units
  β-galactosidase activity, Mean: 141 Miller units
Strain ΔmtrR, 100 µM hormone
  mtrC-lacZ β-galactosidase activity, Mean: 369 Miller units
Testosterone 6.25 µM, plate column 3
  Plate-6 (Testosterone) Miller units, Mean: 69 Miller units
Testosterone 6.25 µM, plate column 9 (second strain set, columns 7-12)
  Plate-6 (Testosterone) Miller units, Mean: 96 Miller units
Testosterone 12.5 µM, plate column 4
  Plate-6 (Testosterone) Miller units, Mean: 81 Miller units
Testosterone 12.5 µM, plate column 10 (second strain set, columns 7-12)
  Plate-6 (Testosterone) Miller units, Mean: 102 Miller units
Testosterone 25 µM, plate column 5
  Plate-6 (Testosterone) Miller units, Mean: 98 Miller units
Testosterone 25 µM, plate column 11 (second strain set, columns 7-12)
  Plate-6 (Testosterone) Miller units, Mean: 112 Miller units
Testosterone 50 µM, plate column 6
  Plate-6 (Testosterone) Miller units, Mean: 117 Miller units
Testosterone 50 µM, plate column 12 (second strain set, columns 7-12)
  Plate-6 (Testosterone) Miller units, Mean: 119 Miller units
Third strain (lower plate half, wells 1-6; not named), testosterone 6.25 µM
  Miller units, Mean: 45 Miller units
Third strain (lower plate half, wells 1-6; not named), testosterone 12.5 µM
  Miller units, Mean: 50 Miller units
Third strain (lower plate half, wells 1-6; not named), testosterone 25 µM
  Miller units, Mean: 70 Miller units
Third strain (lower plate half, wells 1-6; not named), testosterone 50 µM
  Miller units, Mean: 74 Miller units
ΔmtrR (by plate layout), testosterone 6.25 µM
  Miller units, Mean: 146 Miller units
ΔmtrR (by plate layout), testosterone 12.5 µM
  Miller units, Mean: 153 Miller units
ΔmtrR (by plate layout), testosterone 25 µM
  Miller units, Mean: 155 Miller units
ΔmtrR (by plate layout), testosterone 50 µM
  Miller units, Mean: 141 Miller units
ΔmtrR + mtrR WT in trans, 1 µM, first data set (c15-c36)
  β-galactosidase activity, Miller units (single replicate): 95 Miller units and 106 Miller units
ΔmtrR + mtrR WT in trans, 6.25 µM, second data set (c53-c74)
  β-galactosidase activity, Miller units (single replicate): 36 Miller units and 39 Miller units and 65 Miller units and 38 Miller units
ΔmtrR + mtrR WT in trans, 10 µM, first data set (c15-c36)
  β-galactosidase activity, Miller units (single replicate): 167 Miller units and 179 Miller units
ΔmtrR + mtrR WT in trans, 12.5 µM, second data set (c53-c74)
  β-galactosidase activity, Miller units (single replicate): 52 Miller units and 40 Miller units and 64 Miller units and 45 Miller units
ΔmtrR + mtrR WT in trans, 25 µM, first data set (c15-c36)
  β-galactosidase activity, Miller units (single replicate): 181 Miller units and 185 Miller units
ΔmtrR + mtrR WT in trans, 25 µM, second data set (c53-c74)
  β-galactosidase activity, Miller units (single replicate): 72 Miller units and 60 Miller units and 77 Miller units
ΔmtrR + mtrR WT in trans, 50 µM, first data set (c15-c36)
  β-galactosidase activity, Miller units (single replicate): 185 Miller units and 193 Miller units
ΔmtrR + mtrR WT in trans, 50 µM, second data set (c53-c74)
  β-galactosidase activity, Miller units (single replicate): 89 Miller units and 62 Miller units and 81 Miller units and 65 Miller units
ΔmtrR + mtrR WT in trans, 100 µM, first data set (c15-c36)
  β-galactosidase activity, Miller units (single replicate): 195 Miller units and 175 Miller units
ΔmtrR, 1 µM, first data set (c15-c36)
  β-galactosidase activity, Miller units (single replicate): 360 Miller units and 326 Miller units and 318 Miller units
ΔmtrR, 6.25 µM, second data set (c53-c74)
  β-galactosidase activity, Miller units (single replicate): 213 Miller units and 147 Miller units and 123 Miller units and 100 Miller units
ΔmtrR, 10 µM, first data set (c15-c36)
  β-galactosidase activity, Miller units (single replicate): 393 Miller units and 347 Miller units and 355 Miller units and 336 Miller units
ΔmtrR, 12.5 µM, second data set (c53-c74)
  β-galactosidase activity, Miller units (single replicate): 202 Miller units and 175 Miller units and 120 Miller units and 117 Miller units
ΔmtrR, 25 µM, first data set (c15-c36)
  β-galactosidase activity, Miller units (single replicate): 325 Miller units and 289 Miller units and 330 Miller units and 304 Miller units
ΔmtrR, 25 µM, second data set (c53-c74)
  β-galactosidase activity, Miller units (single replicate): 194 Miller units and 180 Miller units and 119 Miller units and 125 Miller units
ΔmtrR, 50 µM, first data set (c15-c36)
  β-galactosidase activity, Miller units (single replicate): 298 Miller units and 287 Miller units and 282 Miller units and 269 Miller units
ΔmtrR, 50 µM, second data set (c53-c74)
  β-galactosidase activity, Miller units (single replicate): 175 Miller units and 157 Miller units and 99 Miller units
ΔmtrR, 100 µM, first data set (c15-c36)
  β-galactosidase activity, Miller units (single replicate): 429 Miller units and 358 Miller units and 309 Miller units and 379 Miller units
